33 molecules from patent publication US8722937B2 (priority 2006, dated 2014) can be followed below.

≈ marks a conversion by molar mass, not a printed value. Where two headings read alike, the source gives them in different places.

Test [1] relates to S. aureus (ATCC 25923). As to the kind of experiment: microbe, parasite or virus in culture. The conditions noted are these: 24 h, 37° C.; for zone of inhibition at 20 µg/disc: Staphylococcus aureus, ATCC25923. The format is cell-based, Staphylococcus aureus.
The test system of test [2] is methicillin-resistant S. aureus (MRSA). Briefly: microbe, parasite or virus in culture. The format is cell-based, Staphylococcus aureus. The conditions noted are these: 24 h, 37° C.; for zone of inhibition at 20 µg/disc: Staphylococcus aureus, MRSA, read-out: Average zones of growth inhibition of MRSA (USF-652-659, 919-920).
Test [3] relates to S. aureus (ATCC 25923). As to the kind of experiment: Agar dilution minimum inhibitory concentration (MIC), S. aureus. The format is cell-based, Staphylococcus aureus. The conditions noted are these: serial dilution in 24-well plate, NCCLS; for MIC: Staphylococcus aureus, ATCC25923, read-out: Minimum inhibitory concentration (MIC) against S. aureus (ATCC 25923).
Test [4] deals with B. anthracis (USF 848). As to the kind of experiment: microbe, parasite or virus in culture. The format is cell-based, Bacillus anthracis. The conditions noted are these: 24 h, 37° C.; for zone of inhibition at 20 µg/disc: Bacillus anthracis.
Test [5] concerns B. anthracis (USF 848). As to the kind of experiment: microbe, parasite or virus in culture. In kind it is cell-based, Bacillus anthracis. Conditions: for MIC: Bacillus anthracis, read-out: Minimum inhibitory concentration (MIC) against B. anthracis (USF 848).
Setting [6] is: read-out: Zones of growth inhibition of S. aureus (ATCC 25923), areas of partial inhibition.
The mark [7] stands for this setting: read-out: Zones of growth inhibition of S. aureus (ATCC 25923).
[8] abbreviates: read-out: Zones of growth inhibition of B. anthracis (USF 848), areas of partial growth inhibition.
Setting [9] is: read-out: Zones of growth inhibition of B. anthracis (USF 848).

As to `CCSSCCNC(=O)CCNC(=O)[C@H](O)C(C)(C)COP(=O)(O)OP(=O)(O)OC[C@H]1O[C@@H](n2cnc3c(N)ncnc32)[C@H](O)[C@@H]1OP(=O)(O)O` [Compound 25b], the “Zones of growth inhibition, S. aureus” value in test [1] was determined as 0 mm. Further, in test [2], the “Zones of growth inhibition, MRSA” value was 0 mm.

Turning to `CSS(C)(=O)=O` [Compound 26a, reference compound], the “Zones of growth inhibition, S. aureus” value in test [1] was determined as 22 mm. For the same molecule, the “Zones of growth inhibition, MRSA” value in test [2] is given as 23 mm.

Regarding `CCSS(C)(=O)=O` [Compound 26b], in test [1], the “Zones of growth inhibition, S. aureus” value is listed as 19 mm. The “Zones of growth inhibition, MRSA” value in test [2] turned out to be 20 mm.

As for `CCC(C)SS(C)(=O)=O` (centres unmarked) [Compound 26c], the “Zones of growth inhibition, S. aureus” value in test [1] is on record as 23 mm. In addition, in test [2], the “Zones of growth inhibition, MRSA” value is 23 mm.

With `CSSc1ccc(F)c(F)c1` [Compound 33a, 3,4-Difluorophenyl Methyl Disulfide], in test [1] (setting [6]), the zone of inhibition at 20 µg/disc is 11 mm.

Turning to `CCSSc1ccc(F)c(F)c1` [Compound 33b, 3,4-Difluorophenyl Ethyl Disulfide], the zone of inhibition at 20 µg/disc in test [1] (setting [6]) came out at 9 mm.

On to `CC(C)SSc1ccc(F)c(F)c1` [Compound 33c, 3,4-Difluorophenyl Isopropyl Disulfide], for which the zone of inhibition at 20 µg/disc in test [1] (setting [6]) came out at 9 mm.

Regarding `CCC(C)SSc1ccc(F)c(F)c1` (centres unmarked) [Compound 33d, Sec-Butyl 3,4-Difluorophenyl Disulfide], the zone of inhibition at 20 µg/disc in test [1] (setting [6]) stood at 9 mm.

In the case of `CCCSSc1ccc(F)c(F)c1` [Compound 33e, 3,4-Difluorophenyl n-propyl Disulfide], the zone of inhibition at 20 µg/disc in test [1] (setting [7]) turned out to be 0 mm.

Take `CCCCSSc1ccc(F)c(F)c1` [Compound 33f, n-Butyl 3,4-difluorophenyl Disulfide]: the zone of inhibition at 20 µg/disc in test [1] (setting [6]) stood at 10 mm.

In the case of `CCSSc1ccccc1Cl` [Compound 34b, o-Chlorophenyl Ethyl Disulfide], in test [1] (setting [6]), the zone of inhibition at 20 µg/disc was determined as 9 mm.

On to `CC(C)SSc1ccccc1Cl` [Compound 34c, o-Chlorophenyl Isopropyl Disulfide], for which, in test [1] (setting [6]), the zone of inhibition at 20 µg/disc turned out to be 11 mm.

For `CCC(C)SSc1ccccc1Cl` (centres unmarked) [Compound 34d, s-Butyl o-chlorophenyl Disulfide], the zone of inhibition at 20 µg/disc in test [1] (setting [6]) stood at 10 mm.

With `CCCSSc1ccccc1Cl` [Compound 34e, o-Chlorophenyl n-propyl Disulfide], the zone of inhibition at 20 µg/disc in test [1] (setting [7]) worked out at 0 mm.

For `CCCCSSc1ccccc1Cl` [Compound 34f, n-Butyl o-chlorophenyl Disulfide], the zone of inhibition at 20 µg/disc in test [1] (setting [6]) is 9 mm.

For the molecule `CSSc1ccc(C)c(C)c1` [Compound 35a, 3,4-Dimethylphenyl Methyl Disulfide], in test [1] (setting [6]), the zone of inhibition at 20 µg/disc came out at 10 mm.

In the case of `CCSSc1ccc(C)c(C)c1` [Compound 35b, 3,4-Dimethylphenyl ethyl disulfide], the zone of inhibition at 20 µg/disc in test [1] (setting [7]) was 0 mm.

`Cc1ccc(SSC(C)C)cc1C` [Compound 35c, 3,4-Dimethylphenyl Isopropyl Disulfide]: the zone of inhibition at 20 µg/disc in test [1] (setting [6]) amounted to 9 mm.

Take `CCC(C)SSc1ccc(C)c(C)c1` (centres unmarked) [Compound 35d, sec-Butyl 3,4-dimethylphenyl Disulfide]: in test [1] (setting [7]), the zone of inhibition at 20 µg/disc worked out at 0 mm.

Take `CCCSSc1ccc(C)c(C)c1` [Compound 35e, 3,4-Dimethylphenyl n-propyl Disulfide]: the zone of inhibition at 20 µg/disc in test [1] (setting [7]) came out at 0 mm.

Regarding `CCCCSSc1ccc(C)c(C)c1` [Compound 35f, n-Butyl 3,4-dimethylphenyl Disulfide], in test [1] (setting [7]), the zone of inhibition at 20 µg/disc was found to be 0 mm.

With `CCOc1cccc(SSC)c1` [Compound 36a, m-Ethoxyphenyl Methyl Disulfide], the zone of inhibition at 20 µg/disc in test [1] (setting [6]) was determined as 9 mm.

With `CSSc1ccc(N)cc1` [Compound 39a, p-Aminophenyl Methyl Disulfide], in test [1] (setting [7]), the zone of inhibition at 20 µg/disc turned out to be 0 mm.

In the case of `CSSc1ccccc1CO` [Compound 41a, o-(Hydroxymethyl)phenyl Methyl Disulfide], the zone of inhibition at 20 µg/disc in test [1] (setting [6]) is 14 mm. The MIC in test [3] was 64 µg/mL (≈ 344 µM).

As to `CSSc1ccccn1` [Compound 42a, Methyl 2-pyridinyl Disulfide], in test [1], the “activity against S. aureus (ATCC 25923) in Kirby-Bauer assay, in words” value is reported as “some activity”. For the same molecule, the zone of inhibition at 20 µg/disc stood at 16 mm in test [1] (setting [7]) and 23 mm in test [1] (setting [6]). For the same molecule, in test [3], the MIC came to 64 µg/mL (≈ 407 µM).

For `CCSSc1ccccn1` [Compound 42b, Ethyl 2-pyridinyl Disulfide], the “activity against S. aureus (ATCC 25923) in Kirby-Bauer assay, in words” value in test [1] is recorded as “some activity”. In addition, the zone of inhibition at 20 µg/disc was determined as 21 mm in test [1] (setting [6]) and 27 mm in test [4] (setting [8]). In addition, the MIC in test [3] worked out at 32 µg/mL (≈ 187 µM).

In the case of `CC(C)SSc1ccccn1` [Compound 42c, Isopropyl 2-pyridinyl Disulfide], the zone of inhibition at 20 µg/disc amounted to 0 mm in test [1] (setting [7]) and 16 mm in test [4] (setting [8]).

On to `CCC(C)SSc1ccccn1` (centres unmarked) [Compound 42d, s-Butyl 2-pyridinyl Disulfide], for which the results for the zone of inhibition at 20 µg/disc in test [1] (setting [7]) and in test [4] (setting [8]) were 0 mm and 17 mm, respectively.

On to `CCSSc1cccc([N+](=O)[O-])c1` [Compound 43b, Ethyl m-nitrophenyl Disulfide], for which the zone of inhibition at 20 µg/disc was determined as 45 mm in test [1] (setting [6]), 12 mm in test [2], 32 mm in test [4] (setting [9]) and 40 mm in test [4] (setting [8]). The MIC in test [3] turned out to be 48 µg/mL (≈ 223 µM); in test [5], 0.38 µg/mL (≈ 1.76 µM).

For the molecule `CC(C)SSc1cccc([N+](=O)[O-])c1` [Compound 43c, Isopropyl m-nitrophenyl Disulfide], the “Zones of growth inhibition of S. aureus (ATCC 25923)” value in test [1] was 55 (85) mm. Also, the “Zones of growth inhibition of S. aureus (ATCC 25923), areas of partial inhibition” value (“Zones … of partial inhibition” below) in test [1] is 55 (85) mm. The zone of inhibition at 20 µg/disc in test [1] (setting [7]) came out at 55 mm; in test [1] (setting [6]), 85 mm; in test [2], 38 mm; in test [4] (setting [9]), 30 mm; in test [4] (setting [8]), 54 mm. Also, the figures for the MIC in test [3] and in test [5] were 0.4 µg/mL (≈ 1.74 µM) and < 0.125 µg/mL, respectively.

As for `CCSSc1ccccc1[N+](=O)[O-]` [Compound 44b], in test [1], the “Zones of growth inhibition of S. aureus (ATCC 25923)” value was 29(40) mm and the “Zones … of partial inhibition” value was 29(40) mm. The “Minimum inhibitory concentration (MIC) against S. aureus (ATCC 25923)” value in test [3] was 16 µg/mL (≈ 74.3 µM). The “Zones of growth inhibition of B. anthracis (USF 848)” value in test [4] is given as 35 mm. Also, the “Minimum inhibitory concentration (MIC) against B. anthracis (USF 848)” value in test [5] was 0.63 µg/mL (≈ 2.93 µM).

In the case of `CCC(C)SSc1ccccc1[N+](=O)[O-]` (centres unmarked) [Compound 44d, s-Butyl o-nitrophenyl Disulfide], the “Zones of growth inhibition of S. aureus (ATCC 25923)” value in test [1] is reported as 15 (24) mm. Besides, in test [1], the “Zones … of partial inhibition” value is on record as 15 (24) mm. The zone of inhibition at 20 µg/disc in test [1] (setting [7]) turned out to be 15 mm; in test [1] (setting [6]), 24 mm; in test [4] (setting [9]) it was 23 mm. The values for the MIC in test [3] and in test [5] were 16 µg/mL (≈ 65.7 µM) and 0.75 µg/mL (≈ 3.08 µM), respectively.

For `CSSc1ccc(NC(C)=O)cc1` [Compound 46a, p-Acetamidophenyl Methyl Disulfide], the zone of inhibition at 20 µg/disc in test [1] (setting [6]) turned out to be 20 mm; in test [4] (setting [8]) it was 23 mm. For the same molecule, the MIC in test [5] worked out at 8 µg/mL (≈ 37.5 µM).
